In patent US8435956B2, “Compositions and methods for protecting cells from toxic exposures” (Percitus Biosciences, LLC, priority 2007, dated 2013):
Where “and” joins values, the source holds several entries; their conditions need not be identical. Equal values may be shown once. Each block holds one molecule with its values, some of them ahead of it.

Assays:
[1] = randomized Phase III human trials: head and neck cancer, lung cancer, carboplatin myelosuppression, rectal cancer; cited from earlier work
[2] = target: T1, Calf intestinal alkaline phosphatase (CIAP) (Bos taurus, UniProt P19111); assay: Alkaline phosphatase dephosphorylation, free sulfhydryl groups measured with DTNB (Ellman's Reagent) at A412; assay type: biochemical
T1 construct: purchased Sigma
Description: Assays were performed to verify the ability of alkaline phosphatase to dephosphorylate compound (7) to create sulfydryl reactive groups. Calf intestinal alkaline phosphatase (CIAP, Sigma) was diluted in phosphate buffered saline (PBS) to 250 units/ml, and frozen in tubes containing 100 μl aliquots.
A second assay was performed to examine the ability of alkaline phosphatase to dephosphorylate compound (7) to create sulfydryl reactive groups. A 12.5 mM solution of Compound 7 was made (4 mg/ml) and used in the test reactions.
A time course of dephosphorylation was also performed using Compound 7, following the same reaction conditions as in Table 3.

[3] = system: HepG2
Description: The compound ((S)-ethyl 2-amino-5-((R)-1-ethoxy-1-oxo-3-(phosphonothio)propan-2-ylamino)-5-oxopentanoate monosodium salt) was tested for intracellular properties. In particular, experiments were conducted to determine the ability of the compound to enter into cells and generate glutathione. HepG2 were incubated with the compound with or without added bovine intestinal alkaline phosphatase (Sigma). Cells were scraped into SSA, vortexed and then spun.

[4] = system: mice; settings: doses up to 5 mmoles/animal
[5] = system: hamsters; settings: doses up to 5 mmoles/animal
[6] = co-administration of reduced glutathione, clinical trial; cited from earlier work

T1 sequence (P19111 20-506): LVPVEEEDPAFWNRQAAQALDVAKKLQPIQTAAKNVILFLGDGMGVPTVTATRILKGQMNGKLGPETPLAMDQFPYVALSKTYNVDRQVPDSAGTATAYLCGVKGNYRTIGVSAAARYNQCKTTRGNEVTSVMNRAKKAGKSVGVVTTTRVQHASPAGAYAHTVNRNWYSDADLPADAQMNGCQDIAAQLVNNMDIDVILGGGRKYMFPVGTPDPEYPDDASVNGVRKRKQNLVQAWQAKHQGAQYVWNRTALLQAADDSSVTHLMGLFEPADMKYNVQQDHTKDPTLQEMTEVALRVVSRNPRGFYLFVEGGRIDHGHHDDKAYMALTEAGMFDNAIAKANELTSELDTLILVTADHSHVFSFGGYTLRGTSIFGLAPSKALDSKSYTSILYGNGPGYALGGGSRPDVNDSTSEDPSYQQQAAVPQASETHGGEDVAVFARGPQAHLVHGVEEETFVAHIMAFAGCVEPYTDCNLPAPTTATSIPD

A412 ([2]; reaction 2: 10 μl 5 mM AF, 890 μl PBS, no CIAP, no DTNB, 10 min room temperature): 0.00
A412 ([2]; reaction 3: 10 μl 5 mM AF, 25 μl CIAP, 865 μl PBS, no DTNB, 10 min room temperature): 0.00
A412 ([2]; reaction 4: 20 μl 5 mM AF, 50 μl CIAP (so in the source), 100 μl DTNB, 880 μl PBS, 10 min room temperature): 0.03
A412 ([2]; reaction 5: 20 μl 5 mM AF, 50 μl CIAP, 100 μl DTNB, 830 μl PBS, 10 min room temperature): 0.34
SMILES: NCCCNCCSP(=O)(O)O [AF, S-2-(3-aminopropylamino)ethylphosphorothioic acid, reference compound]
toxicity of chemotherapy and radiation therapy [1]: reduce toxicity

SMILES: CCOC(=O)[C@H](CSP(=O)([O-])O)NC(=O)CC[C@H](N)C(=O)OCC.[Na+] [Compound 7, (S)-ethyl 2-amino-5-((R)-1-ethoxy-1-oxo-3-(phosphonothio)propan-2-ylamino)-5-oxopentanoate monosodium salt]
increase in cellular GSH ([3]; HepG2, compound and alkaline phosphatase, in the presence of buthionine sulfoximine): greater than 5 fold
entry into cells ([3]; HepG2, without prior hydrolysis of the phosphate group by alkaline phosphatase): did not enter cells
toxicity to cells ([3]; HepG2 incubated with compound with or without alkaline phosphatase): did not exhibit any evidence of toxicity
increase in GSH contents ([3]; HepG2 treated with the compound and alkaline phosphatase): 3.6 fold
overt toxicity [4]: no overt toxicity
overt toxicity [5]: no overt toxicity
time course of dephosphorylation (free sulfhydryl groups) ([2]; 30 min. period, A412 readings at 3 min. intervals, conditions as in Table 3): time dependent
dephosphorylation by alkaline phosphatase ([2]; conclusion from Table 3): dephosphorylated by alkaline phosphatase to yield free reactive sulfhydryl groups
A412 ([2]; with CIAP (50 μl): 10 μl 12.5 mM C7, 100 μl DTNB, 840 μl PBS, 10 min 37° C., listed as C7, monosodium salt): 0.547 and 0.526
A412 ([2]; without CIAP (negative reaction): 10 μl 12.5 mM C7, 100 μl DTNB, 890 μl PBS, 10 min 37° C., listed as C7, monosodium salt): 0.044 and 0.039

A412 ([2]; reaction 1, positive control: 10 μl 2 mM GSH, 100 μl DTNB, 890 μl PBS, no CIAP, 5 min room temperature): 0.35
SMILES: N[C@@H](CCC(=O)N[C@@H](CS)C(=O)NCC(=O)O)C(=O)O [GSH, glutathione, reference compound]
neuropathy seen with oxaliplatin [6]: significantly reduce the neuropathy
